Results on 2 compounds are retold here after US8354534B2, “Selective opioid compounds” (Alkermes, Inc., priority 2008, dated 2013).

The subject of this assay is morphine inhibition of prostaglandin E2 (PGE2) induced diarrhea. Put plainly: Antagonism of morphine-inhibited diarrhea in mice. The class given is in vivo, mice (Swiss-Webster). To be noted: morphine 1 mg/kg s.c., PGE2 320 μg/kg at 30 min, watery stools observed, result shown only in figure. The method, then:
Albino mice of either sex (Swiss-Webster) weighing 20-30 g were used to determine the ability of an opioid antagonist to antagonize morphine inhibition of prostaglandin E2 (PGE2) induced diarrhea according to the method of Dajani et al. (1979). Briefly, mice are treated at time 0 with morphine, 1 mg/kg s.c. and an opioid antagonist, 60, 180, 240, 300, 360, 480, or 720 mg/kg orally; or 3, 10, 30, 100 or 140 mg/kg i.p; or saline, 0.1 ml/10 gm body weight orally or i.p. Mice are then treated at 30 min with PGE2, 320 μg/kg which consistently produced watery stools in the absence of morphine. […] Eleven to 24 mice were used per dose of an opioid antagonist for the oral and 6 are used for the i.p. routes. Data was analyzed using Fisher's exact probability test (Siegel, 1956). These studies were repeated using naltrexone, 0.005, 0.01, 0.05, 0.1, and 5 mg/kg i.p. and 0.5, 1, 2, and 4 mg/kg orally.

On to `NC(=O)c1ccc2c(c1O)[C@]13CCN(CC4CC4)[C@H](C2)[C@]1(O)CC[C@@H](NC(=O)[C@@H](N)CC(=O)O)C3` [Compound 12], for which the “Inhibition of morphine blockade of PGE2-induced diarrhea” value is recorded as “Inhibition of morphine blockade of PGE2-induced diarrhea”.

In the case of `NC(=O)c1ccc2c(c1O)[C@]13CCN(CC4CC4)[C@H](C2)[C@]1(O)CC[C@@H](NC(CC(=O)O)C(=O)O)C3` (some centres unmarked) [Compound 13], the “Inhibition of morphine blockade of PGE2-induced diarrhea” value is “Inhibition of morphine blockade of PGE2-induced diarrhea”.
